# Test results reported in patent publication US7348427B2, “Antipathogenic benzamide compounds” (Genesoft Pharmaceuticals, Inc., priority 2001, dated 2008).
# Experiments:
# [1] = system: Bacillus cereus (ATCC 11778); experiment: MIC, NCCLS broth microdilution assay; format: cell-based; conditions: A = B. cereus ATCC 11778
# Text: (§1) In vitro biological activity data were collected for a variety of microorganisms, including Bacillus cereus (ATCC 11778), Staphylococcus aureus (ATCC 27660, a methicillin resistant strain (MRSA); ATCC 13709, a methicillin sensitive strain (MSSA)); Streptococcus pneumoniae (ATCC 51422, a penicillin resistant strain (PRSP)), Enterococcus faecium (ATCC 51559, a vancomycin resistant strain (VRE)), and Staphylococcus epidermidis (ATCC 12228). Additionally, antifungal activity data were collected for Candida albicans (ATCC 38247).
# (§2) Compounds according to this invention were screened for their in vitro activities against selected species of bacteria and fungi. The minimal inhibition concentration (MIC) of these compounds was determined using the National Committee for Clinical Laboratory Standards (NCCLS) broth microdilution assay in microtiter plates, as set forth in: (1) the guidelines of the National. Committee for Clinical Laboratory Standards (NCCLS) Document M7-A4 (NCCLS, 1997); (2) the guidelines of the National Committee for Clinical Laboratory Standards (NCCLS) Document M11-A4 (NCCLS, 1997); and (3) the guidelines and reference method of the National Committee for Clinical Laboratory Standards (NCCLS) Document M27-T (NCCLS, 1995). For antifungal assays, the method recommended in Murray, P R., 1995 Manual of Clinical Microbiology (ASM Press, Washington, D.C.), was employed.
# [2] = system: Staphylococcus aureus (ATCC 13709, a methicillin sensitive strain (MSSA)); experiment: MIC, NCCLS broth microdilution assay; format: cell-based; conditions: E = S. aureus ATCC 13709
# Text: as §1, §2
# [3] = system: Staphylococcus aureus (ATCC 27660, a methicillin resistant strain (MRSA)); experiment: MIC, NCCLS broth microdilution assay; format: cell-based; conditions: F = S. aureus ATCC 27660
# Text: as §1, §2
# [4] = system: Candida albicans (ATCC 38247); experiment: Antifungal MIC assay; format: cell-based; conditions: B = C. albicans ATCC 38247
# Text: as §1, §2
# [5] = system: E. faecalis ATCC 29212; experiment: MIC, NCCLS broth microdilution assay; format: cell-based, Enterococcus faecalis; conditions: C = E. faecalis ATCC 29212
# Procedure: as §2
# [6] = system: S. pneumoniae ATCC 49619; experiment: MIC, NCCLS broth microdilution assay; format: cell-based, Streptococcus pneumoniae; conditions: H = S. pneumoniae ATCC 49619
# Procedure: as §2
# [7] = Staphylococcus aureus, read-out: Minimum Inhibitory Concentration (MIC)
Minimum Inhibitory Concentration (MIC) [1],Minimum Inhibitory Concentration (MIC) [4],Minimum Inhibitory Concentration (MIC) [5],Minimum Inhibitory Concentration (MIC) [6],"MIC ([1]; Bacillus cereus, ATCC11778, read-out: Minimum Inhibitory Concentration (MIC)) [µg/mL]","MIC [2, 7] [µg/mL]","MIC [3, 7] [µg/mL]","MIC ([4]; Candida albicans, ATCC38247, read-out: Minimum Inhibitory Concentration (MIC)) [µg/mL]","MIC ([5]; Enterococcus faecalis, ATCC29212, read-out: Minimum Inhibitory Concentration (MIC)) [µg/mL]","MIC ([6]; Streptococcus pneumoniae, ATCC49619, read-out: Minimum Inhibitory Concentration (MIC)) [µg/mL]",Structure (SMILES),Minimum Inhibitory Concentration (MIC) [2],Minimum Inhibitory Concentration (MIC) [3]
,,,,12 to 32,4 to 12,4 to 12,> 32,≤ 4,≤ 4,Cn1cc(NC(=O)c2cc(NC(=O)c3ccc(Cl)cc3F)c[nH]2)cc1C(=O)NCCN1CCOCC1 [Compound A-17],,
+++ (+++ = MIC ≦ 4),+ (+ = 12 ≦ MIC ≦ 32),++ (++ = 4 < MIC < 12),+ (+ = 12 ≦ MIC ≦ 32),,,,,,,Cn1cc(NC(=O)c2cc(NC(=O)c3cc(NC(=O)c4ccc(Cl)cc4)c[nH]3)cn2C)cc1C(=O)NCCN1CCOCC1 [Compound A-34],,
++ (++ = 4 < MIC < 12),>32 µg/mL,+++ (+++ = MIC ≦ 4),+++ (+++ = MIC ≦ 4),,,,,,,Cn1cc(NC(=O)c2cc(NC(=O)c3ccc(F)cc3F)cn2C)cc1C(=O)NCCN1CCOCC1 [Compound B-2],,
++ (++ = 4 < MIC < 12),>32 µg/mL,+++ (+++ = MIC ≦ 4),+++ (+++ = MIC ≦ 4),,,,,,,Cn1cc(NC(=O)c2cc(NC(=O)c3cc(NC(=O)c4ccc(F)c(F)c4)cn3C)cn2C)cc1C(=O)NCCN1CCOCC1 [Compound B-31],,
+ (+ = 12 ≦ MIC ≦ 32),>32 µg/mL,+ (+ = 12 ≦ MIC ≦ 32),+ (+ = 12 ≦ MIC ≦ 32),,,,,,,Cn1cc(NC(=O)c2cc(NC(=O)c3cc(NC(=O)c4cccc(F)c4)cn3C)cn2C)cc1C(=O)NCCN1CCOCC1 [Compound B-38],,
++ (++ = 4 < MIC < 12),>32 µg/mL,++ (++ = 4 < MIC < 12),+++ (+++ = MIC ≦ 4),,,,,,,Cn1cc(NC(=O)c2cc(NC(=O)c3cc(NC(=O)c4ccc(F)cc4Cl)cn3C)cn2C)cc1C(=O)NCCN1CCOCC1 [Compound B-45],,
+++ (+++ = MIC ≦ 4),>32 µg/mL,+++ (+++ = MIC ≦ 4),+++ (+++ = MIC ≦ 4),,,,,,,Cn1cc(NC(=O)c2cc(NC(=O)c3cc(NC(=O)c4ccc(F)c(Cl)c4)cn3C)cn2C)cc1C(=O)NCCN1CCOCC1 [Compound B-46],,
>32 µg/mL,>32 µg/mL,>32 µg/mL,>32 µg/mL,,,,,,,Cn1cc(NC(=O)c2cc(NC(=O)c3cc(NC(=O)c4c(Cl)cccc4Cl)cn3C)cn2C)cc1C(=O)NCCN1CCOCC1 [Compound B-52],,
+++ (+++ = MIC ≦ 4),>32 µg/mL,+++ (+++ = MIC ≦ 4),+++ (+++ = MIC ≦ 4),,,,,,,Cn1cc(NC(=O)c2cc(NC(=O)c3cc(NC(=O)c4ccc(Cl)cc4Cl)cn3C)cn2C)cc1C(=O)NCCN1CCOCC1 [Compound B-55],,
+ (+ = 12 ≦ MIC ≦ 32),>32 µg/mL,+++ (+++ = MIC ≦ 4),+++ (+++ = MIC ≦ 4),,,,,,,Cn1cc(NC(=O)c2cc(NC(=O)c3ccc(Cl)cc3)cn2C)cc1C(=O)NCCN1CCOCC1 [Compound B-57],,
+ (+ = 12 ≦ MIC ≦ 32),>32 µg/mL,++ (++ = 4 < MIC < 12),++ (++ = 4 < MIC < 12),,,,,,,Cn1cc(NC(=O)c2cc(NC(=O)c3cc(NC(=O)c4cccc(Cl)c4)cn3C)cn2C)cc1C(=O)NCCN1CCOCC1 [Compound B-59],,
+ (+ = 12 ≦ MIC ≦ 32),>32 µg/mL,+ (+ = 12 ≦ MIC ≦ 32),+ (+ = 12 ≦ MIC ≦ 32),,,,,,,Cn1cc(NC(=O)c2cc(NC(=O)c3cc(NC(=O)c4ccccc4Cl)cn3C)cn2C)cc1C(=O)NCCN1CCOCC1 [Compound B-60],,
+ (+ = 12 ≦ MIC ≦ 32),>32 µg/mL,++ (++ = 4 < MIC < 12),+ (+ = 12 ≦ MIC ≦ 32),,,,,,,Cn1cc(NC(=O)c2cc(NC(=O)c3cc(NC(=O)c4cccc(C(F)(F)F)c4)cn3C)cn2C)cc1C(=O)NCCN1CCOCC1 [Compound B-70],,
+ (+ = 12 ≦ MIC ≦ 32),>32 µg/mL,++ (++ = 4 < MIC < 12),+++ (+++ = MIC ≦ 4),,,,,,,Cn1cc(NC(=O)c2cc(NC(=O)c3cc(NC(=O)c4ccc(C(F)(F)F)cc4)cn3C)cn2C)cc1C(=O)NCCN1CCOCC1 [Compound B-71],,

Structure (SMILES),Minimum Inhibitory Concentration (MIC) [1],Minimum Inhibitory Concentration (MIC) [4],Minimum Inhibitory Concentration (MIC) [5],Minimum Inhibitory Concentration (MIC) [6],"MIC ([1]; Bacillus cereus, ATCC11778, read-out: Minimum Inhibitory Concentration (MIC)) [µg/mL]","MIC [2, 7] [µg/mL]","MIC [3, 7] [µg/mL]","MIC ([4]; Candida albicans, ATCC38247, read-out: Minimum Inhibitory Concentration (MIC)) [µg/mL]","MIC ([5]; Enterococcus faecalis, ATCC29212, read-out: Minimum Inhibitory Concentration (MIC)) [µg/mL]","MIC ([6]; Streptococcus pneumoniae, ATCC49619, read-out: Minimum Inhibitory Concentration (MIC)) [µg/mL]",Minimum Inhibitory Concentration (MIC) [2],Minimum Inhibitory Concentration (MIC) [3]
Cn1cc(NC(=O)c2cc(NC(=O)c3cc(NC(=O)c4ccc(F)cc4F)c[nH]3)cn2C)cc1C(=O)NCCN1CCOCC1 [Compound A-1],+++ (+++ = MIC ≦ 4),>32 µg/mL,+++ (+++ = MIC ≦ 4),+++ (+++ = MIC ≦ 4),,,,,,,+++ (+++ = MIC ≦ 4),++ (++ = 4 < MIC < 12)
C[C@@H]1CN(CCNC(=O)c2cc(NC(=O)c3cc(NC(=O)c4cc(NC(=O)c5ccc(F)cc5F)c[nH]4)cn3C)cn2C)C[C@H](C)O1 [Compound A-5],+ (+ = 12 ≦ MIC ≦ 32),>32 µg/mL,+++ (+++ = MIC ≦ 4),++ (++ = 4 < MIC < 12),,,,,,,+++ (+++ = MIC ≦ 4),+++ (+++ = MIC ≦ 4)
C[C@@H]1CCC[C@H](C)N1CCNC(=O)c1cc(NC(=O)c2cc(NC(=O)c3cc(NC(=O)c4ccc(F)cc4F)c[nH]3)cn2C)cn1C [Compound A-10],+++ (+++ = MIC ≦ 4),++ (++ = 4 < MIC < 12),++ (++ = 4 < MIC < 12),+++ (+++ = MIC ≦ 4),,,,,,,+++ (+++ = MIC ≦ 4),+++ (+++ = MIC ≦ 4)
Cn1cc(NC(=O)c2cc(NC(=O)c3cc(NC(=O)c4ccc(F)cc4F)c[nH]3)cn2C)cc1C(=O)NCCCN1CCC(O)CC1 [Compound A-11],+ (+ = 12 ≦ MIC ≦ 32),+ (+ = 12 ≦ MIC ≦ 32),+ (+ = 12 ≦ MIC ≦ 32),+ (+ = 12 ≦ MIC ≦ 32),,,,,,,++ (++ = 4 < MIC < 12),+ (+ = 12 ≦ MIC ≦ 32)
CN(C)CC(C)(C)CNC(=O)c1cc(NC(=O)c2cc(NC(=O)c3cc(NC(=O)c4ccc(Cl)cc4F)c[nH]3)cn2C)cn1C [Compound A-14],+++ (+++ = MIC ≦ 4),+ (+ = 12 ≦ MIC ≦ 32),+++ (+++ = MIC ≦ 4),+++ (+++ = MIC ≦ 4),,,,,,,+++ (+++ = MIC ≦ 4),+++ (+++ = MIC ≦ 4)
CN(C)CCCCNC(=O)c1cc(NC(=O)c2cc(NC(=O)c3cc(NC(=O)c4ccc(Cl)cc4F)c[nH]3)cn2C)cn1C [Compound A-15],+++ (+++ = MIC ≦ 4),+ (+ = 12 ≦ MIC ≦ 32),+++ (+++ = MIC ≦ 4),+++ (+++ = MIC ≦ 4),,,,,,,+++ (+++ = MIC ≦ 4),+++ (+++ = MIC ≦ 4)
Cn1cc(NC(=O)c2cc(NC(=O)c3ccc(Cl)cc3F)c[nH]2)cc1C(=O)NCCN1CCCC1 [Compound A-19],+ (+ = 12 ≦ MIC ≦ 32),>32 µg/mL,+++ (+++ = MIC ≦ 4),+++ (+++ = MIC ≦ 4),,,,,,,++ (++ = 4 < MIC < 12),+++ (+++ = MIC ≦ 4)
